Laboratory results: patent publication US20260256716A1, “COMPOSITIONS AND METHODS OF USE THEREOF” (Board of Supervisors of Louisiana State University and …, priority 2023, published 2026)

Tests used:
Assay type in all cases: cell-based, human
ARPE cells [1] = assay: Cumene hydroperoxide induced lipid peroxidation in ARPE cells (BODIPY); settings: 100 nM and 1 nM overnight; 100 uM cumene hydroperoxide
Protocol: Representative 5-HT2A Receptor Agonist, R-DOI, Decreases Oxidative stress induced lipid peroxidation at low nM concentrations thereby reversing adverse processes that underlie development and progression of the Pathophysiology of Age-Associated Ocular and Neurodegenerative Diseases. ARPE cells were plated and mock treated or treated with the 5HT2A agonist R-DOI at 100 nM or 1 nM concentrations. Following an overnight incubation, live ARPE cells were labeled with an lipid peroxidation indicator dye BODIPY that changes fluorescence from red to green as it becomes oxidized. Cells were subsequently treated with 100 uM cumene hydroperoxide to induce lipid peroxidation and cellular oxidative stress and imaged in the red and green channels to assess the protective effects of 5HT2A agonists on lipid peroxidation. In the absence of 5HT2A agonists, there was a clear increase in green fluorescence present following treatment with cumene hydroperoxide.

ARPE cells [2] = assay: Mitochondrial morphology by fluorescent microscopy in ARPE cells expressing mitochondrial red/green fluorescent protein; settings: 100 nM, 50 nM or 10 nM; 48 hours post treatment
Protocol: Representative 5-HT2A Receptor Agonist, R-DOI, Increases Mitochondrial Biogenesis and Quality by Inducing Mitochondrial Fusion at low nM concentrations thereby reversing adverse processes that underlie development and progression of the Pathophysiology of Age-Associated Ocular and Neurodegenerative Diseases. ARPE cells transfected with plasmids that express either a red or green fluorescent protein biomarker that marks mitochondria were plated and treated with R-DOI @100 nM, 50 nM or 10 nM. 48 hours post treatment, mitochondrial morphology was evaluated by fluorescent microscopy.
• Fluorescent dyes limit researchers to study in a static manor due to fixation. We engineered a plasmid expressing mitochondrial localized AcGFP1/dsRed2. […]

ARPE-19 cells = assay: ATP luciferase assay in ARPE-19 cells
intracellular H2O2 = assay: Intracellular H2O2 (ROS-Glo bioluminescence) in ARPE-19 cells at diabetic glucose concentrations; settings: 10 nM; glucose 5, 10, 20, 30 mM; 72 hours
Protocol: Hyperglycemic conditions induce increased disease promoting ROS production that is abrogated by low nM concentrations of the Representative 5-HT2A Receptor Agonist. R-DOI Returning to Base-line Homeostatic Levels. ARPE-19 cells were plated using physiological media (HPLM; 7% FCS) overnight prior to starvation (HPLM 0.5% FCS) overnight with or without 10 nM R-DOI. Cells were then replaced with HPLM 7% FCS containing a range of glucose concentrations spanning diabetic blood glucose levels (5 mM, 10 mM, 20 mM, and 30 mM) with or without the addition of 10 nM R-DOI for 72-hours. Cells were then lysed to quantify intracellular H2O2 levels via bioluminescence as described above. Low dose 5-HT2A agonists abrogate the hyperglycemic induced induction od ROS that is pathophysiological for development and progression of neurodegenerative and ocular age-related diseases, especially within diabetic patients, or patients that have conditions that induce increased levels of blood glucose. Pathological glucose concentrations increase intracellular H2O2. 5-HT2AR agonism alleviates glucose-induced intracellular H2O2 at diabetic glucose concentrations.
Evaluating intracellular reactive oxygen species (ROS) levels (FIG. 67). Promega's ROS-Glo H2O2 assay enables researchers to evaluate intracellular ROS levels. […]

Q: For `COc1cc(C[C@@H](C)N)c(OC)cc1I` (single isomer, unassigned) [R-DOI, R enantiomer 2,5-Dimethoxy-4-iodoamphetamine], which “oxidative stress induced lipid peroxidation” value (ARPE cells [1]) is on record?
A: abrogated lipid peroxidation

Q: And the “mitochondrial biomass and morphology” value (ARPE cells [2])?
A: increased mitochondrial biomass with a non-fragmented fused morphology

Q: What about the “ATP levels relative to Mock treated ARPE-19 cells” value (ARPE-19 cells; 10 fold dilutions 100 nM to 0.1 nM) of the same molecule?
A: Increase Mitochondrial Function And ATP Production

Q: What about the “production of ATP” value (ARPE-19 cells; ARPE WT cells, 24 h after administration) of the same molecule?
A: enhanced production of ATP

Q: And the “hyperglycemia induced ROS production (intracellular H2O2)” value (intracellular H2O2)?
A: abrogated
